Here are results for three compounds from ChEMBL document CHEMBL1141758, “Gesashidine A, a beta-carboline alkaloid with an imidazole ring from a Thorectidae sponge” (J Nat Prod, 2005).

Each structure is given as a SMILES string. Active and inactive are the calls of the source. No cut-off for these calls is given here.

For orientation: IC50 means the concentration at which inhibition is half-maximal. A lower IC50 goes with higher potency. One may read the MIC as the lowest concentration that inhibits growth of the organism. High values mean a need for much substance, low ones inhibition by little substance.

One test deals with KB. Put plainly: Cytotoxicity against human KB cells. The class given is functional, cell-based.
Another test concerns Micrococcus luteus. Put plainly: Antimicrobial activity against Micrococcus luteus. The class given is functional.
In a further test the test system is L1210. Put plainly: Cytotoxicity against mouse L1210 cells. The class given is functional, cell-based.

With `CSc1c(Cc2nccc3c2[nH]c2ccc(O)cc23)n(C)c[n+]1C` [GESASHIDINE A], the IC50 with KB and in the test with L1210 was above 10 µg/mL throughout. This compound came in with an MIC against Micrococcus luteus of 16.6 µg/mL.

Regarding `CSc1c(Cc2nc(C(=O)[O-])cc3c2[nH]c2ccc(O)cc23)n(C)c[n+]1C`, the outcome in the test on Micrococcus luteus was inactive.

Take `CSc1c(C(=O)c2nc(C(=O)[O-])cc3c2[nH]c2ccc(O)cc23)n(C)c[n+]1C`: the result in the test with Micrococcus luteus was inactive.
